According to PubChem BioAssay AID2060615 (Molecular Pharmacology Branch, DTP, NCI, 2025):

Test system: 496974-208-R-J2-PDC complex spheroids, growth % test/control
Experiment: Anticancer human tumor 496974-208-R-J2-PDC patient-derived pancreatic carcinoma cell line growth inhibition [CLK]
Conditions: for IC50: curve of first compound; for viability, T/C: stronger effect = lower value
Method in brief: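 Multi-cell-type spheroids combined patient-derived tumor cells with HUVEC endothelial cells and human mesenchymal stem cells. Paired agents were dosed in half-log steps down from about clinical Cmax, or from 10 microM where Cmax was unknown.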

[1] = second compound 0.0316 µM, first compound 0.0316 µM
[2] = second compound 0.0316 µM, first compound 0.1 µM
[3] = second compound 0.0316 µM, first compound 0.316 µM
[4] = second compound 0.0316 µM, first compound 1 µM
[5] = second compound 0.0316 µM, first compound 3.16 µM
[6] = second compound 0.0316 µM, first compound 10 µM
[7] = second compound 0.1 µM, first compound 0.0316 µM
[8] = second compound 0.1 µM, first compound 0.1 µM
[9] = second compound 0.1 µM, first compound 0.316 µM
[10] = second compound 0.1 µM, first compound 1 µM
[11] = second compound 0.1 µM, first compound 3.16 µM
[12] = second compound 0.1 µM, first compound 10 µM
[13] = second compound 0.316 µM, first compound 0.0316 µM
[14] = second compound 0.316 µM, first compound 0.1 µM
[15] = second compound 0.316 µM, first compound 0.316 µM
[16] = second compound 0.316 µM, first compound 1 µM
[17] = second compound 0.316 µM, first compound 3.16 µM
[18] = second compound 0.316 µM, first compound 10 µM
[19] = second compound 1 µM, first compound 0.0316 µM
[20] = second compound 1 µM, first compound 0.1 µM
[21] = second compound 1 µM, first compound 0.316 µM
[22] = second compound 1 µM, first compound 1 µM
[23] = second compound 1 µM, first compound 3.16 µM
[24] = second compound 1 µM, first compound 10 µM
[25] = second compound 3.16 µM, first compound 0.0316 µM
[26] = second compound 3.16 µM, first compound 0.1 µM
[27] = second compound 3.16 µM, first compound 0.316 µM
[28] = second compound 3.16 µM, first compound 1 µM
[29] = second compound 3.16 µM, first compound 3.16 µM
[30] = second compound 3.16 µM, first compound 10 µM
[31] = second compound 10 µM, first compound 0.0316 µM
[32] = second compound 10 µM, first compound 0.1 µM
[33] = second compound 10 µM, first compound 0.316 µM
[34] = second compound 10 µM, first compound 1 µM
[35] = second compound 10 µM, first compound 3.16 µM
[36] = second compound 10 µM, first compound 10 µM
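Note: spheroids exposed to the drugs for 7 days before readout.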
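Throughout, for viability, T/C: 100% = DMSO vehicle control wells.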

For `COc1ccc([C@@H](O)c2cc(-c3ncnc4cc(N5CCOCC5)ccc34)c(F)cc2Cl)nn1` + CN1CCN(c2cc(C(=O)Nc3cc4cc(-c5cnn(C)c5)ccc4cn3)ccn2)CC1, the IC50 (second compound 0.0316 µM) was 5.97 µM, the IC50 (second compound 0.1 µM) was 3.47 µM and the IC50 (second compound 0.316 µM) was < 0.0316 µM. For the same compound, the IC50 (second compound 1 µM) was < 0.0316 µM, the IC50 (second compound 3.16 µM) was < 0.0316 µM and the IC50 (second compound 10 µM) was < 0.0316 µM. For the same compound, the viability, T/C [1] was 110%, the viability, T/C [2] was 101% and the viability, T/C [3] was 92.9%. For the same compound, the viability, T/C [4] was 88.7%, the viability, T/C [5] was 63.6% and the viability, T/C [6] was 37.7%. The viability, T/C [7] was 84.8%, the viability, T/C [8] was 81.4% and the viability, T/C [9] was 84.2%. For the same compound, the viability, T/C [10] was 69.9%, the viability, T/C [11] was 52.2% and the viability, T/C [12] was 31.5%. The viability, T/C [13] was 4.25%, the viability, T/C [14] was 4.3% and the viability, T/C [15] was 5.59%. It also gave a viability, T/C [16] of 3.72%, a viability, T/C [17] of 2.53% and a viability, T/C [18] of 1.66%. For the same compound, the viability, T/C [19] was 0.41%, the viability, T/C [20] was 0.45% and the viability, T/C [21] was 2.89%. For the same compound, the viability, T/C [22] was 0.48%, the viability, T/C [23] was 1.17% and the viability, T/C [24] was 1.46%. It also gave a viability, T/C [25] of 0.36%, a viability, T/C [26] of 0.61% and a viability, T/C [27] of 0.67%. For the same compound, the viability, T/C [28] was 0.54%, the viability, T/C [29] was 2.79% and the viability, T/C [30] was 2.82%. The viability, T/C [31] was 0.19%, the viability, T/C [32] was 0.34% and the viability, T/C [33] was 1.74%. It also gave a viability, T/C [34] of 0.3%, a viability, T/C [35] of 2% and a viability, T/C [36] of 2.87%.

`COc1cccc2c1C(=O)c1c(O)c3c(c(O)c1C2=O)CC(O)(C(=O)CO)CC3OC1CC(N)C(O)C(C)O1` (stereo unspecified) + CN1CCN(c2cc(C(=O)Nc3cc4cc(-c5cnn(C)c5)ccc4cn3)ccn2)CC1 was tested, and the IC50 (second compound 0.0316 µM) was 0.12 µM, the IC50 (second compound 0.1 µM) was 0.0785 µM and the IC50 (second compound 0.316 µM) was < 0.0316 µM. For the same compound, the IC50 (second compound 1 µM) was < 0.0316 µM, the IC50 (second compound 3.16 µM) was < 0.0316 µM and the IC50 (second compound 10 µM) was < 0.0316 µM. The viability, T/C [1] was 68.7%, the viability, T/C [2] was 51.4% and the viability, T/C [3] was 30.8%. For the same compound, the viability, T/C [4] was 3.22%, the viability, T/C [5] was 0.57% and the viability, T/C [6] was 0.47%. The viability, T/C [7] was 59.9%, the viability, T/C [8] was 46.6% and the viability, T/C [9] was 20.3%. The viability, T/C [10] was 2.07%, the viability, T/C [11] was 0.59% and the viability, T/C [12] was 4.88%. It also gave a viability, T/C [13] of 7.3%, a viability, T/C [14] of 3.63% and a viability, T/C [15] of 1.93%. The viability, T/C [16] was 0.81%, the viability, T/C [17] was 0.45% and the viability, T/C [18] was 3.13%. The viability, T/C [19] was 0.57%, the viability, T/C [20] was 1.13% and the viability, T/C [21] was 0.75%. The viability, T/C [22] was 0.66%, the viability, T/C [23] was 0.36% and the viability, T/C [24] was 4.38%. The viability, T/C [25] was 0.52%, the viability, T/C [26] was 0.84% and the viability, T/C [27] was 0.57%. For the same compound, the viability, T/C [28] was 0.48%, the viability, T/C [29] was 1.77% and the viability, T/C [30] was 4.51%. The viability, T/C [31] was 0.22%, the viability, T/C [32] was 1.44% and the viability, T/C [33] was 0.2%. For the same compound, the viability, T/C [34] was 0.2%, the viability, T/C [35] was 0.21% and the viability, T/C [36] was 5.39%.

For `C=C(F)C(=O)N1CCN(c2nc(OCC3CCCN3C)nc3c2CCN(c2cccc4cccc(Cl)c24)C3)CC1CC#N` (stereo unspecified) + CNC(=O)c1ccc(Nc2nc(OC3CCCC3)c3c(-c4ccc5nc(C)oc5c4)c[nH]c3n2)c(OC)c1, the IC50 (second compound 0.0316 µM) was 5.46 µM, the IC50 (second compound 0.1 µM) was 4.52 µM and the IC50 (second compound 0.316 µM) was 4.15 µM. The IC50 (second compound 1 µM) was 2.74 µM, the IC50 (second compound 3.16 µM) was 2.32 µM and the IC50 (second compound 10 µM) was 0.549 µM. For the same compound, the viability, T/C [1] was 89%, the viability, T/C [2] was 91.7% and the viability, T/C [3] was 90.5%. For the same compound, the viability, T/C [4] was 90.6%, the viability, T/C [5] was 91.4% and the viability, T/C [6] was 4.85%. The viability, T/C [7] was 79.2%, the viability, T/C [8] was 73.6% and the viability, T/C [9] was 72.9%. The viability, T/C [10] was 76.1%, the viability, T/C [11] was 71.7% and the viability, T/C [12] was 1.82%. For the same compound, the viability, T/C [13] was 80.4%, the viability, T/C [14] was 72.9% and the viability, T/C [15] was 73.5%. The viability, T/C [16] was 76.2%, the viability, T/C [17] was 63.8% and the viability, T/C [18] was 5.04%. It also gave a viability, T/C [19] of 69.5%, a viability, T/C [20] of 68.5% and a viability, T/C [21] of 64.7%. It also gave a viability, T/C [22] of 64.8%, a viability, T/C [23] of 47.9% and a viability, T/C [24] of 0.69%. For the same compound, the viability, T/C [25] was 59.8%, the viability, T/C [26] was 59.4% and the viability, T/C [27] was 55.8%. The viability, T/C [28] was 56.9%, the viability, T/C [29] was 47.5% and the viability, T/C [30] was 1.05%. The viability, T/C [31] was 56.4%, the viability, T/C [32] was 52.2% and the viability, T/C [33] was 48.4%. For the same compound, the viability, T/C [34] was 45.4%, the viability, T/C [35] was 39.8% and the viability, T/C [36] was 1.59%.
